The term IC50 denotes the concentration at which inhibition is half-maximal.

Results on 5 compounds are retold here after US20220380376A1, “Nitrogen Oxide-Donating PDE-5 and/or PDE-6 Inhibitor Compounds” (ILDONG PHARMACEUTICAL CO., LTD., priority 2019, published 2022).

A short description of series [1]: Plasma protein binding assay (equilibrium dialysis). It is filed as in vitro ADME. The conditions noted are these: human plasma, 2 μM, dialysis 4 hours at 37° C. The procedure:
The dialysis device used in this example is a 96-well equilibrium dialysis plate (Cat #1006, HT Dialysis LLC, Gales Gerry, CT), and HTD 96 a/b dialysis membrane strips (Cat #1101, MWCO 12-14 kDa, HT Dialysis LLC). The dialysis device was assembled following the manufacturer's instructions.
The dialysis membrane strips were soaked in ultra-pure water at room temperature for approximately 1 hour. Each membrane strip containing 2 membranes was separated and soaked in 20:80 ethanol/water (v/v) for approximately 20 minutes, after which they were ready for used or were stored in the solution at 2-8° C. for up to a month. Prior to experiment, the membrane was rinsed and soaked for 20 minutes in ultra-pure water.
On the day of the experiment, the plasma was thawed by running under col tap water and centrifuged at 3220 rpm for 5 minutes to remove any clos. The pH value of the resulting plasma was checked. Only plasma with pH value with 7.0-8.0 could be used.
Both test and control compounds were dissolved in DMSO to achieve 10 mM stock solutions. Working solutions (400 μM) if test and control compounds were prepared by diluting 10μ p of stock solutions with 240 μL of DMSO. Loading matrix solutions (2 μM) of both test and control compounds were prepared by diluting 5 μL of working solutions with 995 μL of blank matrix.
To prepare the loading matrix containing the test compound or control compounds, aliquots of either test compound working solutions or control compound working solution were spiked into blank matrix to achieve final test concentrations. The concentration of organic solvent in the final solutions were no more than 1% (normally 0.5%). The samples were mixture thoroughly before being used.
To prepare the time zero (TO) samples to be used for recovery determinations. 50 μL aliquots of loading matrix solution were transferred in triplicate to the sample collection plate. The samples were immediately matched with opposite blank buffer to obtain a final volume of 100 μL of 1:1 matrix/dialysis buffer (v/v) in each well. 500 μL of stop solution were added to these TO samples. They were then stored at 2-8° C. pending further processes along with other post-dialysis samples.
To load the dialysis device, an aliquot of 150 μL of the loading matrix was transferred to the donor side of each dialysis well in triplicate, and 150 μL of the dialysis buffer was loaded to the received side of the well. The dialysis was placed in humidified incubator at 37° C. with 5% CO2 on a shaking platform that rated slowly (about 100 rpm) for 4 hours.
At the end of the dialysis, aliquots of 50 μL of samples were taken from both the buffer side and the matrix side of the dialysis deice. These samples were transferred into new 96-well plates (the sample collection plates). […]
Background: Equilibrium dialysis compares concentrations on both sides of a semipermeable membrane.

The target of another series is human PDE-5A1 (Homo sapiens, UniProt O76074). The series is described as follows: Human PDE-5A1 inhibition assay (fluorescence polarization). The series is classed as biochemical. Conditions: human PDE5A1, 100 nM FAM-cGMP, 60 minutes at room temperature.
The next series has as its target human PDE-6C (Homo sapiens, UniProt P51160). The series is described as follows: Human PDE-6C inhibition assay (fluorescence polarization). It is filed as biochemical. The conditions noted are these: human PDE6C, 100 nM FAM-cGMP, 60 minutes at room temperature. For orientation: In fluorescence polarisation assays a small probe gives low polarisation when free and higher when bound to something large.

Series [2] relates to ocular normotensive rabbits. The experiment in a line: In vivo intraocular pressure (IOP) lowering effect in rabbits. Set-up: species or system New Zealand white rabbits. The conditions noted are these: 50 μL per eye once, right eye vs vehicle in left eye, 1-10 hours post dose. The text has this:
This example illustrates the procedures and results of the intraocular pressure (IOP) lowering effect of compound 18 as compared to Latanoprostene bunod and latanoprost at different concentrations in ocular normotensive rabbits.
Forty (40) male New Zealand white rabbits were divided into 4 groups with 10 animals per group. Animals were then randomly assigned to groups based on body weight.
Latanoprostene bunod ophthalmic solution (LBN, 0.024%) and latanoprost eye drops (0.005%) were used as positive controls and dosed with the same volumes into the right eyes of the tested animals in groups 1 and 2 once.
Compound 18 was instilled into the right eyes of the tested animals in groups 3 (10 mg/mL) and 4 (20 mg/mL) at 50 μL per eye once.
All left eyes of the tested animals in each group were dosed with vehicle solution at 50 μL per eye.
The intraocular pressures (IOPs) were measured once at pre-dose and then once at 1, 2, 4, 6, 8, and 10 hours post dose for each group of animals. FIGS. 1 to 4 show the results from the IOP lowering studies for all four tested groups.

Sequence of human PDE-6C (P51160 whole entry): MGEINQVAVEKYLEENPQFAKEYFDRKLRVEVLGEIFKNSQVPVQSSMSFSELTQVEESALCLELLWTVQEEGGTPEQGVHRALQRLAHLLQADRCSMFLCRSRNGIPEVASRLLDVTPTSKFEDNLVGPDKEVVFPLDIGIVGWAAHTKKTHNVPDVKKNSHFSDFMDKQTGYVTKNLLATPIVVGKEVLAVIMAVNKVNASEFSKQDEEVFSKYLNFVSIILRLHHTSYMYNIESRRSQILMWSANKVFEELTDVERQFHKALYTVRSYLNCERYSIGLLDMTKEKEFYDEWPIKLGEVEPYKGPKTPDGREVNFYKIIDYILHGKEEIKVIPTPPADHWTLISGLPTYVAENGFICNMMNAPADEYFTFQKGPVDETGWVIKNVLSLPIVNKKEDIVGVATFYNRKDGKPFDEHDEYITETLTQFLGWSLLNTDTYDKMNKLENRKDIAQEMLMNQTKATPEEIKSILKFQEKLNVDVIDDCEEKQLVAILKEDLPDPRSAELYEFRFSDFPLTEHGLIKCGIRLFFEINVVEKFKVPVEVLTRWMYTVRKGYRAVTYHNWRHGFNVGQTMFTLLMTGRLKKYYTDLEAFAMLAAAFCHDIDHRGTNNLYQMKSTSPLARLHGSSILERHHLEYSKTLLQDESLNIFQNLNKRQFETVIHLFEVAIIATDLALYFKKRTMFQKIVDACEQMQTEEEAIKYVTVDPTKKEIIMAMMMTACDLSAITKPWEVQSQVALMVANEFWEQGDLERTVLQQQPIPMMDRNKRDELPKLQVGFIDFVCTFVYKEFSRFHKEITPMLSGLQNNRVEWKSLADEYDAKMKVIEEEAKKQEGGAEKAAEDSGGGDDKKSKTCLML

As to `CCCc1nn(C)c2c(=O)[nH]c(-c3cc(S(=O)(=O)N4CC(NCCCO[N+](=O)[O-])C4)ccc3OCC)nc12` [Compound 22, 3-((1-((4-ethoxy-3-(1-methyl-7-oxo-3-propyl-6,7-dihydro-1H-pyrazolo[4,3-d]pyrimidin-5-yl)phenyl)sulfonyl)azetidin-3-yl)amino)propyl nitrate], the “% Bound” value in series [1] was found to be 97.53%.
In the case of `CCCc1nn(C)c2c(=O)[nH]c(-c3cc(S(=O)(=O)N4CC(CCO[N+](=O)[O-])C4)ccc3OCC)nc12` [Compound 17, 2-(1-((4-ethoxy-3-(1-methyl-7-oxo-3-propyl-6,7-dihydro-1H-pyrazolo [4,3-d]pyrimidin-5-yl)phenyl)sulfonyl)azetidin-3-yl)ethyl nitrate], the IC50 against human PDE-5A1 and on human PDE-6C was less than 0.01 µM in each case.
As to `CCCc1nn(C)c2c(=O)[nH]c(-c3cc(S(=O)(=O)N4CC(NCCCO)C4)ccc3OCC)nc12` [Compound 10, 5-(2-ethoxy-5-((3-((3-hydroxypropyl)amino)azetidin-1-yl)sulfonyl)phenyl)-1-methyl-3-propyl-1,6-dihydro-7H-pyrazolo[4,3-d]pyrimidin-7-one], the IC50 against human PDE-5A1 and at human PDE-6C was less than 0.01 µM in each case. Besides, in series [1], the “% Bound” value is recorded as 86.19%.
Regarding `CCCc1nn(C)c2c(=O)[nH]c(-c3cc(S(=O)(=O)N4CC(CCCO[N+](=O)[O-])C4)ccc3OCC)nc12` [Compound 18, 3-(1-((4-ethoxy-3-(1-methyl-7-oxo-3-propyl-6,7-dihydro-1H-pyrazolo[4,3-d]pyrimidin-5-yl)phenyl)sulfonyl)azetidin-3-yl)propyl nitrate], the half-maximal inhibitory concentration (IC50) on human PDE-5A1 and against human PDE-6C was less than 0.01 µM throughout. In addition, the “% Bound” value in series [1] was 99.52%. For the same compound, the IOP lowering effect entry in series [2] (10 mg/mL) and in series [2] (20 mg/mL) was “significantly lower the IOP” throughout.
As for `CCCc1nn(C)c2c(=O)[nH]c(-c3cc(S(=O)(=O)N4CC(CCCO)C4)ccc3OCC)nc12` [Compound 4, 5-(2-ethoxy-5-((3-(3-hydroxypropyl)azetidin-1-yl)sulfonyl)phenyl)-1-methyl-3-propyl-1,6-dihydro-7H-pyrazolo[4,3-d]pyrimidin-7-one], the “% Bound” value in series [1] is 96.01%.
